From the NIST ThermoML archive (doi:10.1016/j.tca.2005.08.007)
± gives the expanded uncertainty stated by the source.

Assay: xn = mol fraction of the nth substance listed
Settings: 298.15 K, 101 kPa, Liquid; for viscosity: Capillary tube (Ostwald / Ubbelohde) method; for mass density: Vibrating tube method

SMILES: CCCCCC [hexane] + Cc1ccccc1
- viscosity (x2 = 0.0406): 0.2774 ± 0.0033 mPa·s
- viscosity (x2 = 0.2028): 0.3073 ± 0.0035 mPa·s
- viscosity (x2 = 0.2804): 0.3185 ± 0.0036 mPa·s
- viscosity (x2 = 0.3596): 0.3272 ± 0.0037 mPa·s
- viscosity (x2 = 0.4423): 0.3421 ± 0.0038 mPa·s
- viscosity (x2 = 0.5997): 0.3812 ± 0.0042 mPa·s
- viscosity (x2 = 0.6757): 0.4028 ± 0.0044 mPa·s
- viscosity (x2 = 0.7597): 0.43 ± 0.0046 mPa·s
- viscosity (x2 = 0.8412): 0.4644 ± 0.0049 mPa·s
- viscosity (x2 = 0.9199): 0.499 ± 0.0052 mPa·s
- mass density (x2 = 0.0406): 657.47 ± 0.4 kg/m3
- mass density (x2 = 0.2028): 690.93 ± 0.4 kg/m3
- mass density (x2 = 0.2804): 706.95 ± 0.41 kg/m3
- mass density (x2 = 0.3596): 723.29 ± 0.42 kg/m3
- mass density (x2 = 0.4423): 740.35 ± 0.42 kg/m3
- mass density (x2 = 0.5997): 772.81 ± 0.43 kg/m3
- mass density (x2 = 0.6757): 788.5 ± 0.43 kg/m3
- mass density (x2 = 0.7597): 805.83 ± 0.43 kg/m3
- mass density (x2 = 0.8412): 822.63 ± 0.44 kg/m3
- mass density (x2 = 0.9199): 838.87 ± 0.44 kg/m3

SMILES: C1CCCCC1 [cyclohexane] + Cc1ccccc1
- viscosity (x2 = 0.0721): 0.8574 ± 0.0077 mPa·s
- viscosity (x2 = 0.1813): 0.7693 ± 0.007 mPa·s
- viscosity (x2 = 0.2798): 0.7024 ± 0.0065 mPa·s
- viscosity (x2 = 0.3613): 0.651 ± 0.0062 mPa·s
- viscosity (x2 = 0.4416): 0.6116 ± 0.0059 mPa·s
- viscosity (x2 = 0.6003): 0.5532 ± 0.0055 mPa·s
- viscosity (x2 = 0.6784): 0.5329 ± 0.0053 mPa·s
- viscosity (x2 = 0.7615): 0.5181 ± 0.0053 mPa·s
- viscosity (x2 = 0.8396): 0.5029 ± 0.0052 mPa·s
- viscosity (x2 = 0.9202): 0.4976 ± 0.0052 mPa·s
- mass density (x2 = 0.0721): 777.43 ± 0.26 kg/m3
- mass density (x2 = 0.1813): 784.63 ± 0.28 kg/m3
- mass density (x2 = 0.2798): 791.6 ± 0.3 kg/m3
- mass density (x2 = 0.3613): 799.02 ± 0.31 kg/m3
- mass density (x2 = 0.4416): 806 ± 0.33 kg/m3
- mass density (x2 = 0.6003): 820.17 ± 0.36 kg/m3
- mass density (x2 = 0.6784): 827.33 ± 0.38 kg/m3
- mass density (x2 = 0.7615): 834.61 ± 0.39 kg/m3
- mass density (x2 = 0.8396): 843.41 ± 0.41 kg/m3
- mass density (x2 = 0.9202): 853.16 ± 0.43 kg/m3

SMILES: C1CCCCC1 [cyclohexane] + CCCCCC
- viscosity (x1 = 0.0397): 0.2833 ± 0.0033 mPa·s
- viscosity (x1 = 0.2011): 0.3282 ± 0.0037 mPa·s
- viscosity (x1 = 0.2776): 0.3485 ± 0.0038 mPa·s
- viscosity (x1 = 0.3617): 0.3778 ± 0.004 mPa·s
- viscosity (x1 = 0.4409): 0.4077 ± 0.0042 mPa·s
- viscosity (x1 = 0.5889): 0.4815 ± 0.0048 mPa·s
- viscosity (x1 = 0.6848): 0.5355 ± 0.0052 mPa·s
- viscosity (x1 = 0.7608): 0.5994 ± 0.0057 mPa·s
- viscosity (x1 = 0.8074): 0.6444 ± 0.006 mPa·s
- viscosity (x1 = 0.9205): 0.7507 ± 0.0068 mPa·s
- mass density (x1 = 0.0397): 655.8 ± 0.39 kg/m3
- mass density (x1 = 0.2011): 674.91 ± 0.37 kg/m3
- mass density (x1 = 0.2776): 683.97 ± 0.36 kg/m3
- mass density (x1 = 0.3617): 693.92 ± 0.35 kg/m3
- mass density (x1 = 0.4409): 703.31 ± 0.34 kg/m3
- mass density (x1 = 0.5889): 720.83 ± 0.32 kg/m3
- mass density (x1 = 0.6848): 732.18 ± 0.3 kg/m3
- mass density (x1 = 0.7608): 741.18 ± 0.29 kg/m3
- mass density (x1 = 0.8074): 746.7 ± 0.28 kg/m3
- mass density (x1 = 0.9205): 760.09 ± 0.27 kg/m3
